Laboratory results reported in patent US20060281806A1, “Treatment and inhibition of disease conditions using flexible heteroarotinoids” (priority 2005, published 2006).
“Also recorded” adds a separate entry of the source.

Tests used:
[1] = system: CC-1 human cervical cell line; assay: In vitro cytotoxicity (SRB growth inhibition) assay, CC-1; assay type: cell-based; set-up: dose or concentration left out as unconfirmed; conditions: 72 h
Procedure: (§1) The SHetA2, SHetA3, SHetA4, SHet50 and 9-cis-RA compounds were evaluated in 4 cervical carcinoma cell lines. The SiHa, CC-1 and C33a human cervical cell lines were maintained in Minimal Essential Media (MEM) containing Earle's salts and L-glutamine supplemented with nonessential amino acids, 1% sodium pyruvate, 10% fetal bovine serum (FBS) and antibiotic/antimycotic. The HT-3 cervical carcinoma cell line was cultured in McCoy's 5a medium supplemented with 10% FBS and antibiotic/antimycotic. Cells were inoculated into 96 well microtiter plates at densities of 1000 cells/well and incubated for 24 h prior to addition of drugs. Drugs were dissolved in dimethyl sulfoxide (DMSO) and diluted in complete medium, prior to addition to triplicate culture wells to achieve final concentrations of […]. Following drug addition, the plates were incubated for 72 h. The assay was terminated by the addition of cold TCA and the cells were stained with 0.4% sulforhodamine B (SRB) in 1% acetic acid. Bound stain was subsequently solubilized with 10 mM trizma base, and the absorbance was read on an automated plate reader at a wavelength of 560 nm. Growth inhibition was determined by dividing the average Optical Density (OD) of the triplicated treated cultures by the average OD of the triplicate control cultures treated with DMSO solvent only. This ratio was converted into a percentage by multiplying by 100. The potency (concentration required to induce half of the maximal activity—GI50) were derived from dose-response graphs generated with results from 3 to 5 individual experiments using GraphPad Software.

[2] = system: HT-3 cervical carcinoma cell line; assay: In vitro cytotoxicity (SRB growth inhibition) assay, HT-3; assay type: cell-based, human; set-up: dose or concentration left out as unconfirmed; conditions: 72 h
Procedure: as §1

[3] = system: ovarian carcinoma organotypic cultures; assay: Organotypic culture model of ovarian tumors; assay type: cell-based, human; conditions: 1 μM retinoid in media; 3, 7 or 14 days
Procedure: FIG. 17. Retinoid effects on ovarian carcinoma organotypic cultures. Organotypic cultures of OVCAR-3 (A, B, E, F, I and J), Caov-3 (C and G), SK-OV-3 (D and H), and O2 (K and L) were grown in the absence (−, top row and K) or presence (+, middle row and I, J and L) of retinoid HetA4 at a concentration of 1 μM in the media. All sections were stained with H&E except for I, which was stained with PAS to detect glycoproteins and glandular differentiantion, and J, which was stained with the TUNEL assay to detect apoptosis. All magnifications are 40×.
To test our hypotheses, we evaluated the effects of clinically achievable concentrations of 4-HPR and Flex-Hets on growth, differentiation and apoptosis in ovarian tissue. A series of compounds with a variety of receptor activation profiles were evaluated. In order to evaluate therapeutic effects, we developed an organotypic culture model of ovarian tumors by growing established cell lines and primary cultures inside collagen gels. Monolayer cultures of cells are not accurate representations of in vivo tissue because they lack the types of interactions that cells have with other cells and with the extracellular matrix in vivo. These interactions are known to influence gene expression and thus the constitution and behavior of cells. In our organotypic model, the growth of tumor cells inside the collagen allows a representation of tumors that have invaded stromal tissue. In the presence of fibroblasts, established cell lines and primary cultures of ovarian cancer formed colonies inside the collagen, while normal or benign ovarian epithelial cells remained as single cells inside the collagen. Human ovarian cancer cell lines (OVCAR-3, Caov-3, SK-OV-3, A2780, UCI 101) and primary human cultures (borderline ovarian tumor (O1), serous papillary tumor (O2), benign ovarian cyst (O3)) were cultured inside and on top of a collagen gel seeded with 3T3 fibroblasts for one week. After further incubation in the presence or absence of 1 μM retinoid (media concentration) for 3, 7 or 14 days, cultures were fixed and sectioned for immunohistochemical analysis.

CC1(C)CC(C)(C)c2cc(NC(=S)Nc3ccc([N+](=O)[O-])cc3)ccc2S1 [SHetA2]
Efficacy: percent growth inhibition relative to the untreated control [1]: 58% | Efficacy: percent growth inhibition relative to the untreated control [2]: 92% | induction of apoptosis (TUNEL) in organotypic cultures [3]: Apoptosis was induced; also recorded: highest level of apoptosis | regulation of growth, differentiation and apoptosis, rank among eleven retinoids [3]: most potent regulator of growth, differentiation and apoptosis
